Results as given in US20230348496A1, “PESTICIDALLY ACTIVE HETEROCYCLIC DERIVATIVES WITH SULFUR CONTAINING SUBSTITUENTS” (SYNGENTA CROP PROTECTION AG, priority 2020, published 2023).

Key:
Type in all cases: in vivo
[1] = tested on: Frankliniella occidentalis (Western Flower Thrips); test: Activity against Frankliniella occidentalis (western flower thrips); details: foliar, 168 h, application rate 200 ppm, sprayed sunflower leaf discs, population of mixed ages, 7 days after infestation
Description: Example B7: Activity Against Frankliniella occidentalis (Western Flower Thrips)
Sunflower leaf discs were placed on agar in 24-well microtiter plates and sprayed with aqueous test solutions prepared from […] stock solutions. After drying the leaf discs were infested with a Frankliniella population of mixed ages. The samples were assessed for mortality 7 days after infestation.

[2] = tested on: Spodoptera littoralis (Egyptian Cotton Leaf Worm); test: Activity against Spodoptera littoralis (Egyptian cotton leaf worm); details: foliar, 72 h, application rate 200 ppm, sprayed cotton leaf discs, L1 larvae, 3 days after infestation
Description: Example B3: Activity Against Spodoptera littoralis (Egyptian Cotton Leaf Worm)
Cotton leaf discs were placed onto agar in 24-well microtiter plates and sprayed with aqueous test solutions prepared from 10′000 ppm DMSO stock solutions. After drying the leaf discs were infested with five L1 larvae. The samples were assessed for mortality, anti-feeding effect, and growth inhibition in comparison to untreated samples 3 days after infestation. Control of Spodoptera littoralis by a test sample is given when at least one of the categories mortality, anti-feedant effect, and growth inhibition is higher than the untreated sample.

[3] = tested on: Plutella xylostella (Diamond Back Moth); test: Activity against Plutella xylostella (diamond back moth); details: 192 h, application rate 200 ppm, artificial diet, Plutella eggs, 8 days after infestation, read-out: effect in at least one of the two categories (mortality or growth inhibition)
Description: Example B8: Activity Against Plutella xylostella (Diamond Back Moth)
24-well microtiter plates with artificial diet were treated with aqueous test solutions prepared from 10′000 ppm DMSO stock solutions by pipetting. After drying, Plutella eggs were pipetted through a plastic stencil onto a gel blotting paper and the plate was closed with it. The samples were assessed for mortality and growth inhibition in comparison to untreated samples 8 days after infestation.

[4] = tested on: Myzus persicae (Green Peach Aphid); test: Activity against Myzus persicae (green peach aphid), feeding/contact activity; details: foliar, 144 h, application rate 200 ppm, sprayed sunflower leaf discs, aphid population of mixed ages, 6 days after infestation
Description: Example B2: Activity Against Myzus persicae (Green Peach Aphid) Feeding/Contact Activity
Sunflower leaf discs were placed onto agar in a 24-well microtiter plate and sprayed with aqueous test solutions prepared from 10′000 ppm DMSO stock solutions. After drying, the leaf discs were infested with an aphid population of mixed ages. The samples were assessed for mortality 6 days after infestation.

[5] = tested on: Euschistus heros (Neotropical Brown Stink Bug); test: Activity against Euschistus heros (neotropical brown stink bug); details: 120 h, application rate 200 ppm, sprayed soybean leaves, N2 nymphs, 5 days after infestation, read-out: effect in at least one of the two categories (mortality or growth inhibition)
Description: Example B6: Activity Against Euschistus heros (Neotropical Brown Stink Bug)
Soybean leaves on agar in 24-well microtiter plates were sprayed with aqueous test solutions prepared from 10′000 ppm DMSO stock solutions. After drying the leaves were infested with N2 nymphs. The samples were assessed for mortality and growth inhibition in comparison to untreated samples 5 days after infestation.

[6] = tested on: Diabrotica Balteata (Corn Root Worm); test: Activity against Diabrotica balteata (corn root worm), sprayed maize sprouts; details: 96 h, application rate 200 ppm, L2 larvae on sprayed maize sprouts, 4 days after infestation, read-out: effect in at least one of the two categories (mortality or growth inhibition)
Description: Example B1: Activity Against Diabrotica Balteata (Corn Root Worm)
Maize sprouts placed onto an agar layer in 24-well microtiter plates were treated with aqueous test solutions prepared from 10′000 ppm DMSO stock solutions by spraying. After drying, the plates were infested with L2 larvae (6 to 10 per well). The samples were assessed for mortality and growth inhibition in comparison to untreated samples 4 days after infestation.

[7] = tested on: Myzus persicae (Green Peach Aphid); test: Myzus persicae (green peach aphid), systemic activity; details: 144 h, test rate 24 ppm, roots of infested pea seedlings in test solution, 6 days
Description: Example B11: Myzus persicae (Green Peach Aphid). Systemic Activity
Roots of pea seedlings infested with an aphid population of mixed ages were placed directly into aqueous test solutions prepared from 10′000 DMSO stock solutions. The samples were assessed for mortality 6 days after placing seedlings into test solutions.

[8] = tested on: Chilo suppressalis (Striped Rice Stemborer); test: Activity against Chilo suppressalis (striped rice stemborer); details: 144 h, application rate 200 ppm, artificial diet, L2 larvae, 6 days after infestation
Description: Example B5: Activity Against Chilo suppressalis (Striped Rice Stemborer)
24-well microtiter plates with artificial diet were treated with aqueous test solutions prepared from 10′000 ppm DMSO stock solutions by pipetting. After drying, the plates were infested with L2 larvae (6-8 per well). The samples were assessed for mortality, anti-feeding effect, and growth inhibition in comparison to untreated samples 6 days after infestation. Control of Chilo suppressalis by a test sample is given when at least one of the categories mortality, anti-feedant effect, and growth inhibition is higher than the untreated sample.

[9] = tested on: Carpocapsa (Cydia) Pomonella (Codling Moth); test: Activity against Carpocapsa (Cydia) pomonella (codling moth), larvicide, feeding/contact; details: 336 h, application rate 12.5 ppm, sprayed diet cubes, L1 larvae, 14 days after infestation
Description: Example B10: Activity Against Carpocapsa (Cydia) Pomonella (Codling Moth) Larvicide, Feeding/Contact
Diet cubes coated with paraffin were sprayed with diluted test solutions in an application chamber. After drying off the treated cubes (10 replicates) were infested with 1 L1 larvae. Samples were incubated at 26-27° C. and checked 14 days after infestation for mortality and growth inhibition.

[10] = tested on: Nilaparvata lugens (Brown Plant Hopper); test: Activity against Nilaparvata lugens (brown plant hopper), larvicide, systemic into water; details: 168 h, application rate 12.5 ppm, rice plants in nutritive solution, N3 nymphs, 7 days after infestation
Description: Example B9: Activity Against Nilaparvata lugens (Brown Plant Hopper) Larvicide, Systemic into Water
Rice plants cultivated in a nutritive solution were treated with the diluted test solutions into nourishing cultivation system. 1 day after application plants were infested with ˜20 N3 nymphs. 7 days after infestation samples were assessed for mortality and growth regulation.

[11] = tested on: Bemisia tabaci (Cotton White Fly); test: Activity against Bemisia tabaci (cotton white fly); details: foliar, 144 h, application rate 200 ppm, sprayed cotton leaf discs, adult white flies, 6 days after incubation
Description: Example B4: Activity Against Bemisia tabaci (Cotton White Fly)
Cotton leaf discs were placed on agar in 24-well microtiter plates and sprayed with aqueous test solutions prepared from 10′000 ppm DMSO stock solutions. After drying the leaf discs were infested with adult white flies. The samples were checked for mortality 6 days after incubation.

CCS(=O)(=O)c1c(N2Cc3ncc(C(F)(F)F)cc3C2=O)nn2cc(C(C)(C)C#N)ccc12 [Compound P7, 2-[3-ethylsulfonyl-2-[5-oxo-3-(trifluoromethyl)-7H-pyrrolo[3,4-b]pyridin-6-yl]pyrazolo[1,5-a]pyridin-6-yl]-2-methyl-propanenitrile]
≥ 80%: mortality at 200 ppm [1] | percent control (mortality, anti-feedant effect or growth inhibition) at 200 ppm [2] | percent effect (mortality or growth inhibition) at 200 ppm [3] | mortality at 200 ppm [4] | percent effect (mortality or growth inhibition) at 200 ppm [5] | percent effect (mortality or growth inhibition) at 200 ppm [6] | mortality at 24 ppm [7] | percent control (mortality, anti-feedant effect or growth inhibition) at 200 ppm [8]

CCS(=O)(=O)c1c(N2Cc3ncc(C(F)(F)F)cc3C2=O)nn2cc(C3(C#N)CC3)ccc12 [Compound P4, 1-[3-ethylsulfonyl-2-[5-oxo-3-(trifluoromethyl)-7H-pyrrolo[3,4-b]pyridin-6-yl]pyrazolo[1,5-a]pyridin-6-yl]cyclopropanecarbonitrile]
≥ 80%: mortality at 200 ppm [1] | mortality at 12.5 ppm [9] | percent control (mortality, anti-feedant effect or growth inhibition) at 200 ppm [2] | percent effect (mortality or growth inhibition) at 200 ppm [3] | mortality at 200 ppm [4] | percent effect (mortality or growth inhibition) at 200 ppm [5] | percent effect (mortality or growth inhibition) at 200 ppm [6] | percent control (mortality, anti-feedant effect or growth inhibition) at 200 ppm [8] | mortality at 12.5 ppm [10]

CCS(=O)(=O)c1c(N2Cc3ccc(S(=O)(=O)C(F)(F)F)cc3C2=O)nn2ccc(C(F)(F)F)cc12 [Compound P3, 2-[3-ethylsulfonyl-5-(trifluoromethyl)pyrazolo[1,5-a]pyridin-2-yl]-6-(trifluoromethylsulfonyl)isoindolin-1-one]
≥ 80%: mortality at 200 ppm [1] | mortality at 12.5 ppm [9] | percent control (mortality, anti-feedant effect or growth inhibition) at 200 ppm [2] | percent effect (mortality or growth inhibition) at 200 ppm [3] | mortality at 200 ppm [4] | percent effect (mortality or growth inhibition) at 200 ppm [6] | percent control (mortality, anti-feedant effect or growth inhibition) at 200 ppm [8]

CCS(=O)(=O)c1c(N2Cc3ncc(C(F)(F)F)cc3C2=O)nn2cc(C3CC3)ccc12 [Compound P1, 6-(6-cyclopropyl-3-ethylsulfonyl-pyrazolo[1,5-a]pyridin-2-yl)-3-(trifluoromethyl)-7H-pyrrolo[3,4-b]pyridin-5-one]
≥ 80%: mortality at 12.5 ppm [9] | percent control (mortality, anti-feedant effect or growth inhibition) at 200 ppm [2] | percent effect (mortality or growth inhibition) at 200 ppm [3] | mortality at 200 ppm [4] | percent effect (mortality or growth inhibition) at 200 ppm [5] | percent effect (mortality or growth inhibition) at 200 ppm [6] | percent control (mortality, anti-feedant effect or growth inhibition) at 200 ppm [8] | mortality at 12.5 ppm [10]

CCS(=O)(=O)c1c(N2Cc3ncc(C(F)(F)F)cc3C2=O)nn2cc(C(F)(F)F)ccc12 [Compound P6, 6-[3-ethylsulfonyl-6-(trifluoromethyl)pyrazolo[1,5-a]pyridin-2-yl]-3-(trifluoromethyl)-7H-pyrrolo[3,4-b]pyridin-5-one]
≥ 80%: mortality at 12.5 ppm [9] | percent control (mortality, anti-feedant effect or growth inhibition) at 200 ppm [2] | percent effect (mortality or growth inhibition) at 200 ppm [3] | mortality at 200 ppm [4] | percent effect (mortality or growth inhibition) at 200 ppm [6] | percent control (mortality, anti-feedant effect or growth inhibition) at 200 ppm [8] | mortality at 12.5 ppm [10]

CCS(=O)(=O)c1c(N2Cc3ccc(OC(F)(F)F)cc3C2=O)nn2ccc(C(F)(F)F)cc12 [Compound P2, 2-[3-ethylsulfonyl-5-(trifluoromethyl)pyrazolo[1,5-a]pyridin-2-yl]-6-(trifluoromethoxy)isoindolin-1-one]
≥ 80%: mortality at 12.5 ppm [9] | percent control (mortality, anti-feedant effect or growth inhibition) at 200 ppm [2] | percent effect (mortality or growth inhibition) at 200 ppm [3] | mortality at 200 ppm [4] | percent effect (mortality or growth inhibition) at 200 ppm [6] | mortality at 200 ppm [11] | percent control (mortality, anti-feedant effect or growth inhibition) at 200 ppm [8]

CCS(=O)(=O)c1c(N2Cc3ncc(C(F)(F)F)cc3C2=O)nn2ccc(C(F)(F)F)cc12 [Compound P5, 6-[3-ethylsulfonyl-5-(trifluoromethyl)pyrazolo[1,5-a]pyridin-2-yl]-3-(trifluoromethyl)-7H-pyrrolo[3,4-b]pyridin-5-one]
≥ 80%: mortality at 12.5 ppm [9] | percent control (mortality, anti-feedant effect or growth inhibition) at 200 ppm [2] | percent effect (mortality or growth inhibition) at 200 ppm [3] | percent effect (mortality or growth inhibition) at 200 ppm [5] | percent effect (mortality or growth inhibition) at 200 ppm [6] | percent control (mortality, anti-feedant effect or growth inhibition) at 200 ppm [8] | mortality at 12.5 ppm [10]
